The nature of the data set: Human HepG2 cell viability assay in 384 well format. The data set is classed as toxicity, cell-based. Further details: dose 125 nL, time 70.5 hour; cytotoxicity at 70.5 h: concentration not given beside the values. Conditions: HepG2 cells, read-out: Inhibition.

On to `CCOC1CC2(CCN(C(=O)COC)CC2)c2cc(F)ccc21` (stereo unspecified), for which the cytotoxicity at 70.5 h was 1.7%. On to `CC(C)N1CCC2(CC1)CN(C)C(=O)C[C@H]2C(F)(F)F`, for which the cytotoxicity at 70.5 h is -7.67%.

Turning to `O=C(c1ccsc1)N1CCC2(CCN2Cc2ccc(F)cc2)C1` (stereo unspecified), the cytotoxicity at 70.5 h is -8.12%. The result for `CCN1C(=O)CCCC12CCCN(C(=O)c1ccsc1)C2` (stereo unspecified) reads 1.97%; that for `O=C(c1ccc2c(c1)OCO2)N1C[C@H](OCC2CC2)[C@H]2COC[C@H]21`, -8.17%; that for `N#CCC(=O)NCc1nnc2n1CCN(Cc1nccs1)C2`, -4.61%. The result for `CN1CCC2(CC1)CN(C)C(=O)C[C@@H]2C(F)(F)F` reads -2.18%; that for `CCN(CC)[C@@H]1CN(Cc2ccc(C)o2)[C@@H]2CCCO[C@H]12`, -14.1%. The result for `N#CCC(=O)NCc1nnc2n1CCN(Cc1cccs1)C2` reads -6.57%. With `O=C(NC1CCC1)C1CCC2(CN(C(=O)c3ccno3)C2)O1` (stereo unspecified), the cytotoxicity at 70.5 h is -14%.

As to `Cc1ccc(C(=O)N2C[C@H]3CN(Cc4csc(C)n4)C[C@H]3C2)cn1`, the cytotoxicity at 70.5 h is 1.63%.

With `Cc1cnc(C(=O)N2C[C@H]3CN(Cc4nccs4)C[C@H]3C2)cn1`, the cytotoxicity at 70.5 h is -5.82%. As for `Cc1cccc(COC[C@H]2CC[C@H]3[C@H](CCN3Cc3ccco3)O2)n1`, the cytotoxicity at 70.5 h is -4.41%. With `CCCS(=O)(=O)N1CC[C@@H]2[C@@H]1CC(=O)N2Cc1csc(C)n1`, the cytotoxicity at 70.5 h is -4.88%. The result for `CCCN(CC)C(=O)c1ncn2c1CN(C)S(=O)(=O)c1ccccc1-2` reads 1.29%. The result for `O=C1CO[C@@H]2CN(C3CCOCC3)C[C@H]2N1Cc1ccncc1` reads 4.06%; that for `O=C1CCCN1Cc1ncn2c1CN(C(=O)NC1CCCC1)CCC2`, 5.73%. For `Cc1csc(CN2CCC[C@]3(C[C@H](OCC4CC4)CO3)C2)n1`, the cytotoxicity at 70.5 h amounted to 1.27%.

Take `Cc1nc(CN2C(=O)C[C@@H]3[C@@H]2CCN3S(=O)(=O)C2CC2)cs1`: the cytotoxicity at 70.5 h came out at 19.1%.

In the case of `Cc1nc(CN2C[C@@H]3CN(C(=O)c4ccoc4C)C[C@@H]3C2)cs1`, the cytotoxicity at 70.5 h worked out at 28.2%. `O=C1CCCN1Cc1ncn2c1CN(C(=O)NC1CCCCC1)CCC2`: the cytotoxicity at 70.5 h worked out at 27.2%. The result for `COCCO[C@@H]1CCN(C(=O)c2ccnnc2)[C@H]1Cc1cnn(C)c1` reads -116%; that for `COCCN1C[C@@H]2CN(c3ncc(F)cn3)C[C@@H]2C1=O`, -47.2%.

For `COCCO[C@H]1CCN(C(=O)c2ccoc2C)[C@H]1Cc1cnn(C)c1`, the cytotoxicity at 70.5 h is -114%. The result for `COCCC(=O)N1CCC2(CCCN2Cc2cccc(Cl)c2)C1` (stereo unspecified) reads -53.8%; that for `COCCO[C@@H]1CCN(C(=O)c2occc2C)[C@H]1Cc1cnn(C)c1`, -90.5%; that for `COc1nn(C)c2c1CCCN(C(=O)c1cccs1)C2`, -23.5%. The result for `O=C(C1CCCC1)N1CCO[C@H]2[C@H](OCC3CCOCC3)CC[C@@H]21` reads -5.12%; that for `COCC1c2c(cnn2C)CCN1Cc1ccsc1` (stereo unspecified), -22.9%; that for `Cn1cc(-c2cnc(N3CCCC3)nc2)cc1C(=O)N1CCOCC1`, -27.4%.

On to `O=C(C1CCOCC1)N1CCO[C@H]2[C@@H](OCC3CC3)CC[C@@H]21`, for which the cytotoxicity at 70.5 h was -6.56%. The result for `Cn1nc(C(=O)NCc2ccccc2C(F)(F)F)c2c1CCS(=O)(=O)C2` reads -5.12%. In the case of `COc1ccc(CNC(=O)c2nn(C)c3c2CS(=O)(=O)CC3)cc1`, the cytotoxicity at 70.5 h was -7.69%.

On to `CCC(C)NC(=O)c1nn(C)c(NC(=O)c2ccccc2OC)c1F` (stereo unspecified), for which the cytotoxicity at 70.5 h was -10.8%. With `CCC1=NC(SCC(=O)c2ccc(OC)cc2)c2cc(CC)sc2N1` (stereo unspecified), the cytotoxicity at 70.5 h was determined as 12.2%. In the case of `CC(=O)N1CCC2(CC1)CN(C)CC[C@H]2C(F)(F)F`, the cytotoxicity at 70.5 h is -4.42%. The result for `O=C(N[C@@H]1CN[C@H]2CCCO[C@H]21)c1cccnc1` reads 1.62%; that for `CN1CCN(Cc2cn3c(n2)CNCC3)CC1`, 23.1%. The result for `O=C(NCC1CC1)c1nc2c(o1)CN(CC1CC1)C2` reads -6.5%; that for `CCN1CCCC12CCN(C(=O)c1ccsc1)CC2`, -7.76%. The result for `CCOCC1CN(C(=O)c2ccncn2)Cc2cnn(C)c21` (stereo unspecified) reads -3.18%; that for `CCOCC1c2c(cnn2C)CCN1C(=O)c1ccncn1` (stereo unspecified), -14.6%. With `COCCN1CCO[C@H]2CN(C(=O)c3ccncc3F)C[C@H]21`, the cytotoxicity at 70.5 h is -9.68%. The result for `CCN(CC)[C@@H]1CN(C(=O)c2ccc(C#N)cc2)[C@@H]2CCCO[C@H]12` reads -4.73%; that for `CCN(CC)[C@@H]1CN(C(=O)c2ccnnc2)[C@@H]2CCCO[C@H]12`, -8.7%; that for `O=C(NCC1CN(c2ncccn2)Cc2nccn2C1)c1cccnc1` (stereo unspecified), -4.53%.

Take `O=S(=O)(C1CC1)N1C[C@@H]2CN(Cc3cccs3)CCO[C@@H]2C1`: the cytotoxicity at 70.5 h stood at 11.2%. The result for `CCS(=O)(=O)N1C[C@@H]2CN(Cc3cccs3)CCO[C@@H]2C1` reads 6.04%. For `O=C(Nc1cnccn1)[C@H]1CC[C@@H]2[C@@H](CCN2Cc2ccccn2)O1`, the cytotoxicity at 70.5 h was -0.71%. The result for `Cc1oncc1C(=O)N1CCC2(CCN(Cc3cccnc3)C2=O)C1` (stereo unspecified) reads -3.48%; that for `Cn1ccc(C(=O)NC2CCC23CCN(Cc2cnn(C)c2)CC3)c1` (stereo unspecified), -1.29%; that for `Cc1nc(CN2C(=O)CC[C@@H]3[C@H]2CCN3C2CCOCC2)cs1`, -2.88%. As to `Cc1occc1C(=O)N1CCC2(CCN(Cc3ccccn3)C2=O)C1` (stereo unspecified), the cytotoxicity at 70.5 h amounted to 5.42%. The result for `Cc1cnc(C(=O)N2CCC3(CCN(Cc4ccccn4)C3=O)C2)cn1` (stereo unspecified) reads 6.84%; that for `CCC(C)(C)NC(=O)c1ncn2c1CN(C)S(=O)(=O)c1ccccc1-2`, 20.8%. The result for `Cc1ccc(CN2CCC3(CCC3NC(=O)c3ccn(C)c3)CC2)s1` (stereo unspecified) reads 0.0423%. The result for `Cn1ccc(C(=O)NC2CCC23CCN(Cc2ccc(F)cc2)CC3)c1` (stereo unspecified) reads -0.822%. In the case of `O=C(Nc1cnccn1)[C@@H]1CC[C@@H]2[C@@H](CCN2Cc2nccs2)O1`, the cytotoxicity at 70.5 h was -4.62%. The result for `Cc1csc(CN2CCC[C@]3(C[C@@H](OCC4CC4)CO3)C2)n1` reads 24.4%; that for `Cc1ccc(CN2CCn3cc(CNC(=O)c4cnn(C)c4)nc3C2)s1`, -102%; that for `CN1CC(=O)N(c2ccsc2)CC12CCN(S(=O)(=O)c1ccccc1)C2` (stereo unspecified), -109%.

As for `COCCNC(=O)c1cc(-c2cc[nH]n2)n2ccccc12`, the cytotoxicity at 70.5 h was -117%. The result for `Cn1cccc1C(=O)NCc1cn2c(n1)CN(CC1CCOCC1)CC2` reads -78.7%; that for `Cc1cnc(N2CC[C@@H]3O[C@@H](COCC(=O)N(C)C)CC[C@@H]32)nc1`, -99.7%; that for `Cc1cc(C)cc(CN2CCC3(CC2)CC(Nc2ncccn2)CO3)c1` (stereo unspecified), -68.4%. The result for `c1cnc(NC2COC3(CCN(Cc4ccoc4)CC3)C2)nc1` (stereo unspecified) reads -97.7%; that for `c1cnc(NCc2nnn3c2CN(Cc2ccco2)CCC3)nc1`, -109%; that for `Cn1cc(C(=O)NCc2cn3c(n2)CN(C2CCOCC2)CC3)cn1`, -109%. With `C1CC(CO[C@@H]2CC[C@H]3[C@H]2OCCN3CC2CCOCC2)CCO1`, the cytotoxicity at 70.5 h is -81.4%. On to `Cc1nc[nH]c1CN1CCC2(CC1)CC(Nc1ncccn1)CO2` (stereo unspecified), for which the cytotoxicity at 70.5 h is -94.8%. As for `O=C(Nc1cnccn1)[C@@H]1COC[C@H]2CN(C3CCC3)C[C@H]21`, the cytotoxicity at 70.5 h was -87.9%. The result for `CCO[C@@H]1CC[C@H]2[C@H]1OCCN2CC1CCOCC1` reads 38.8%.

Regarding `CN(C)C(=O)COC[C@@H]1CC[C@H]2[C@H](CCN2c2ccccn2)O1`, the cytotoxicity at 70.5 h was determined as 44.1%.

Take `COCC1CN(Cc2ccoc2)Cc2nn(CC3CC3)cc21` (stereo unspecified): the cytotoxicity at 70.5 h was determined as 18.3%.

Take `CCC(C)N1CCC2(CC1)CN(c1cncnc1)C(=O)CO2` (stereo unspecified): the cytotoxicity at 70.5 h is -15.3%. The result for `CN(C)C(=O)CC1CC2(CCN(Cc3cccs3)CC2)c2ccccc21` (stereo unspecified) reads -20%. The result for `CCN1CC2(CC1=O)CN(Cc1cnn(C)c1)CCN(C(=O)N(C)C)C2` (stereo unspecified) reads 9.62%; that for `O=C1COC2(CCN(Cc3ccsc3)CC2)CN1`, -4.53%; that for `Cc1ccc(CN2C[C@H](OCCN(C)C)[C@H]3OCCC[C@H]32)o1`, 3.05%.

Consider `CC(C)N1[C@H](CN2CCCC2)C[C@@H]2CN(C(=O)c3ccoc3)CC[C@@H]21`, for which the cytotoxicity at 70.5 h came out at 1.33%. The result for `CN1CC(=O)N(c2cnn(C)c2)CC12CCN(CC1CC1)C2` (stereo unspecified) reads -2.29%. The result for `c1cncc(O[C@@H]2CC[C@H]3[C@H]2OCCN3C2CCCC2)c1` reads 3.46%; that for `Cc1csc(CN2CC[C@H]3O[C@H](C(=O)Nc4cccnc4)CC[C@H]32)n1`, 8.96%. `COc1ccccc1CN1C[C@@H]2COC[C@]2(COc2cccnc2)C1`: the cytotoxicity at 70.5 h is -116%. The result for `c1csc(CN2C[C@@H]3COC[C@]3(COCc3ccncc3)C2)c1` reads 28.4%; that for `Cc1cccc(C(=O)N2C[C@@H](OCc3ccncc3)[C@@H]3OCCC[C@@H]32)n1`, -12.5%. The result for `CN1[C@H](CN2CCCC2)C[C@@H]2CN(Cc3ccoc3)CC[C@@H]21` reads 4.1%; that for `Cc1ccsc1CN1C[C@@H]2CN(Cc3cccnc3)CCO[C@@H]2C1`, 10.4%; that for `Cc1nnc(N2CCCC3(CN(Cc4cccnc4)CCO3)C2)o1` (stereo unspecified), -4.29%. `Cc1cccc(CN2C[C@@H]3COC[C@]3(COc3cccnc3)C2)n1`: the cytotoxicity at 70.5 h was -120%. On to `CN(C)Cc1nnn2c1CN(Cc1cccnc1)CCC2`, for which the cytotoxicity at 70.5 h was -83.6%.

Source of the values: ChEMBL document CHEMBL3507680, “University of Dundee, Gates Library screen for HepG2 cell viability”.
